Test results taken from patent US20250296971A1, “GASTRIC INHIBITORY PEPTIDE RECEPTOR LIGANDS” (priority 2021, published 2025).
*1 amine or outer side, *2 acyl side, *3 side chain or, on linkers, in order; H or OH if unused. Where a SMILES comes first, the peptide text is derived from it. Bridges are numbered along the chain shown (N, C = ends). [ ]: non-standard residue; d: D form. The star is where a group is joined. NH(1-deoxy-D-glucityl) = OC[C@@H](O)[C@@H](O)[C@H](O)[C@@H](O)CN*; DOTA = O=C(O)CN1CCN(CC(=O)O)CCN(CC(=O)*)CCN(CC(=O)O)CC1; Trp(5-Cl) = N[C@@H](Cc1c[nH]c2ccc(Cl)cc12)C(=O)O; Pyridine(2,6-diCH2) = c1cc(C[*:1])nc(C[*:2])c1; Pro(4R-NH2) = N[C@H]1CN[C@H](C(=O)O)C1; Glutaryl = O=C(CCCC(=O)[*:2])[*:1]; X1 = O=C(CN1CCC(N[*:1])CC1)[*:2]; Api = NC1(C(=O)O)CCNCC1

Tests used:
[1] = target: T1, human GIP receptor (bioGIPR) (Homo sapiens, UniProt P48546); test: Surface plasmon resonance (SPR) based binding assay; settings: Single Cycle Kinetic mode, 25° C.
T1 construct: Biotinylate extracellular of the human GIP receptor (bioGIPR, Proteros biostructures GmbH, lot #02/2b); purchased Proteros biostructures GmbH lot #02/2b
T1 sequence (P48546 22-138 limits assumed): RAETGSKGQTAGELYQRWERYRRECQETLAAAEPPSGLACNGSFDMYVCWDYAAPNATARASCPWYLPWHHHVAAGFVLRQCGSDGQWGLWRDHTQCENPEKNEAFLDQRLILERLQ
How it was run: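 Binding was measured at 25 °C by single-cycle kinetics against a reference flow cell, with blank-run and drift correction, after capturing biotinylated GIPR extracellular domain to ~3500 RU. Running buffer: HBST, 0.1% DMSO. A 1:1 Langmuir model gave kinetic rates, KD, t1/2 and pKD.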

Rat GIPR = target: T2, Rat GIPR (Rattus norvegicus, UniProt P43219); test: Radioligand binding assay, rat GIPR; settings: 111In-labeled compound, 6 h, 37° C., read-out: pKD Category (converted)
T2 construct: host or cells: CHO-VGT
T2 sequence (P43219 19-455): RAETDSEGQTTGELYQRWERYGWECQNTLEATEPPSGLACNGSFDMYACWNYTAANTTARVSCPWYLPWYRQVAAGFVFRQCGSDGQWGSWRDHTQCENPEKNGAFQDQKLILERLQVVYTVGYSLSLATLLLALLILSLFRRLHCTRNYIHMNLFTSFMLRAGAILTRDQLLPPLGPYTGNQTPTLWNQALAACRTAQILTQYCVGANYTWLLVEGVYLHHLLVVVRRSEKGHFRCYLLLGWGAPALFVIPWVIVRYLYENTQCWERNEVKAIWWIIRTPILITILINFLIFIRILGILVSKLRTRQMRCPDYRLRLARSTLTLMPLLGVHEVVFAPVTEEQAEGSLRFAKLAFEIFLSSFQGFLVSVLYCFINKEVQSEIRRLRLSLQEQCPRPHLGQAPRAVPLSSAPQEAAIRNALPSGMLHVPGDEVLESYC
Method: (§1) In order to assess the affinity of ^111In-labeled compounds to the GIPR receptor of different species, a radioligand binding assay was established.
(§2) CHO-K1 cells (GenScript Biotech, #M00486) were stably transfected with the human GIPR. CHO-K1-hGIPR cells were cultured in Ham's F12 medium (Sigma-Aldrich, #N4888) including 10% fetal calf serum (FCS), 2 mM L-glutamine, 100 U/mL penicillin, 100 µg/mL streptomycin, 200 µg/mL Zeocin and 100 µg/mL HygromycinB. To evaluate the species cross-reactivity, CHO-VGT cells were transfected with the human, dog, rat and mouse GIPR (Inscreenex GmbH), which were cultured in DMEM/Ham's F12 Medium 1:1 (Biochrom, #F485) including 5% fetal calf serum (FCS), 2 mM L-glutamine, 100 U/mL penicillin and 100 μg/mL streptomycin. Cells were detached with Accutase (Biolegend, #BLD-423201) and counted using a particle counter (CASY Model TT; Schärfe Systems). Cell concentrations were adjusted to 3×10^5 mL^−1, and 1.000 μL of the suspension per well were dispensed into flat-clear-bottom 24 well plates.
(§3) Approximately 24 hours after re-seeding, the medium was aspirated and the cells were washed once with 700 μL assay medium (Ham's medium with 20 mM HEPES). […]
(§4) At the end of incubation time, cells were washed and subsequently harvested in 300 μL RIPA buffer containing PIC. Radioactivity of the cell lysate of each well was counted using a gamma counter (Perkin Elmer). […]

Mouse GIPR = target: T3, Mouse GIPR (Mus musculus, UniProt Q0P543); test: Radioligand binding assay, mouse GIPR; settings: 111In-labeled compound, 6 h, 37° C., read-out: pKD Category (converted)
T3 construct: host or cells: CHO-VGT
T3 sequence (Q0P543 19-460): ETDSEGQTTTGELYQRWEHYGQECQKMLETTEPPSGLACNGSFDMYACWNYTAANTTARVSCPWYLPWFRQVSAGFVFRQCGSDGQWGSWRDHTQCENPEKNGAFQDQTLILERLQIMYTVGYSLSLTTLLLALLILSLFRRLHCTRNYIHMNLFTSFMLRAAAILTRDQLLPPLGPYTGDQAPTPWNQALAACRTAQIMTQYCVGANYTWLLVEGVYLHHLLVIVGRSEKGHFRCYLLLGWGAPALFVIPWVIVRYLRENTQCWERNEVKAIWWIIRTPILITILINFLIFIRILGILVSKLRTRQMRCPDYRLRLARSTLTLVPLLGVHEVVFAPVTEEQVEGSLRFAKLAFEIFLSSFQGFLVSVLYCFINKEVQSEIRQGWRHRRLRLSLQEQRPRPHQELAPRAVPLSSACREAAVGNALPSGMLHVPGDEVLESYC
Method: as §1, §2, §3, §4

t1/2 Category ([1]; SPR dissociation half-life): A (t1/2 values>15 min)
Kd ([1]; SPR, 1:1 Langmuir binding model, read-out: pKD Category (converted)): < 1 nM
Kd (Rat GIPR): 0.316 to 1 nM
Kd (Mouse GIPR): > 1 nM
Compound: CC[C@H](C)[C@@H]1NC(=O)[C@H](CC(C)C)NC(=O)C2(CCN(C(=O)CN3CCN(CC(=O)O)CCN(CC(=O)O)CCN(CC(=O)O)CC3)CC2)NC(=O)[C@@H](NC(=O)[C@@H](CC(C)C)NC(=O)[C@H](CCC(=O)O)NC(=O)[C@@H]2C[C@@H](N)CN2C(=O)[C@H](Cc2c[nH]c3ccc(Cl)cc23)NC(=O)[C@H](Cc2c[nH]c3ccccc23)NC(=O)[C@H](CC(=O)O)NC(=O)CCCC(=O)NC[C@H](O)[C@@H](O)[C@H](O)[C@H](O)CO)CSCc2cccc(n2)CSC[C@@H](C(=O)NC2CCN(CC(=O)N[C@H](CCC(=O)NC[C@H](O)[C@@H](O)[C@H](O)[C@H](O)CO)C(N)=O)CC2)NC1=O [GIP-001, AGLU-Glutar-Asp-Trp-5Clw-Tap-Glu-leu-[Cys(2Lut)-Apc(DOTA)-Leu-Ile-Cys]-APAc-glu(AGLU)-NH2] ({NH(1-deoxy-D-glucityl)-Glutaryl}-DW[Trp(5-Cl)][Pro(4R-NH2)]E[dL]C[Api](DOTA)LIC[X1][dE](NH(1-deoxy-D-glucityl))-NH2; linker 7-11 via Pyridine(2,6-diCH2))
